# Laboratory results: publication PMC6112376, “Comprehensive Analyses and Prioritization of Tox21 10K Chemicals Affecting Mitochondrial Function by in-Depth Mechanistic Studies” (Environmental Health Perspectives, 2018)
# Where two headings read alike, the source gives them in different places.
# What was measured:
# [1] = test system: Caenorhabditis elegans (Bristol N2); experiment: C. elegans larval development and growth assay
# hNSC = experiment: MMP assay in human neural stem cells (hNSC); type: cell-based; conditions: Homo sapiens, Neural stem cell, read-out: hNSC IC50 (MMP)
# rat primary hepatocytes [2] = experiment: MMP assay in rat primary hepatocytes; conditions: for IC50: Rattus norvegicus, Hepatocyte
# [3] = test system: Caenorhabditis elegans strain PE255; experiment: In vivo C. elegans ATP status assay
# HepG2 cells [4] = experiment: cells; conditions: Homo sapiens
# [5] = test system: p53 (p53-bla HCT-116 cells); experiment: p53 β-lactamase reporter gene assay; type: cell-based, human; conditions: 16 h incubation, mean±SD of three experiments
# [6] = test system: Nrf2/ARE (ARE-bla HepG2 cells); experiment: ARE β-lactamase reporter gene assay; type: cell-based, human; conditions: Homo sapiens, HepG2; 16 h incubation; mean±SD of three experiments; read-out: ARE (HepG2) EC50
# HepG2 cells [7] = conditions: cited from earlier work
# [8] = test system: mitochondrial respiratory chain complex IV; type: biochemical, rat
# HepG2 cells [9] = experiment: ROS-Glo hydrogen peroxide (ROS) assay; type: cell-based, human; conditions: Homo sapiens, read-out: ROS (HepG2) EC50
# [10] = test system: HeLa cells expressing YFP-Parkin; experiment: Parkin translocation assay; type: cell-based, human
# [11] = test system: mitochondrial respiratory chain complex V; type: biochemical, rat
# [12] = test system: mitochondrial respiratory chain complex I; type: biochemical, rat
# [13] = test system: mitochondrial respiratory chain complex III; type: biochemical, rat
# [14] = molecular target: T1, mitochondrial respiratory chain complex II (Rattus norvegicus, UniProt P21913+Q641Z9+Q6PCT8+Q920L2); experiment: Respiratory chain complex II activity; type: biochemical; conditions: tested up to 100μM
# T1 construct: Submitochondrial particles were prepared by subjecting the intact rat mitochondria, isolated as described above, to three successive freeze–thaw cycles; from tissue; host or cells: rat liver mitochondria (submitochondrial particles)
# T1 sequence (Q920L2 35-656): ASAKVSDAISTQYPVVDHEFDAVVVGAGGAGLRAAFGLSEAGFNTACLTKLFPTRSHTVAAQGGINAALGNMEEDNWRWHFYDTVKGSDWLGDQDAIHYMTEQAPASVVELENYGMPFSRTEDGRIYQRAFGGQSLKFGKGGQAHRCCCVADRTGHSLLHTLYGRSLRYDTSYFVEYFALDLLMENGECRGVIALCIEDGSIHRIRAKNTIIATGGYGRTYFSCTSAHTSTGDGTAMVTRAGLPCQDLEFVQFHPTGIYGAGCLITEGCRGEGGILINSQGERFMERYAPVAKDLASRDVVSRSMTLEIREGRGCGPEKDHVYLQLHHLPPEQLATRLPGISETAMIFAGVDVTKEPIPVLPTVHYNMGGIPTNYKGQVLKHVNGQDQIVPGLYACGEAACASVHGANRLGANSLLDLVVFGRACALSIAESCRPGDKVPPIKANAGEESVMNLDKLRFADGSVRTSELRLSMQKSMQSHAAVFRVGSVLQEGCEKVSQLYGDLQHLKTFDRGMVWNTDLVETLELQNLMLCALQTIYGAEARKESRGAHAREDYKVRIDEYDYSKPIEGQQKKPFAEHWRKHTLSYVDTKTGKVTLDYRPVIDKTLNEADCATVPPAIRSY
# T1 sequence (P21913 31-282): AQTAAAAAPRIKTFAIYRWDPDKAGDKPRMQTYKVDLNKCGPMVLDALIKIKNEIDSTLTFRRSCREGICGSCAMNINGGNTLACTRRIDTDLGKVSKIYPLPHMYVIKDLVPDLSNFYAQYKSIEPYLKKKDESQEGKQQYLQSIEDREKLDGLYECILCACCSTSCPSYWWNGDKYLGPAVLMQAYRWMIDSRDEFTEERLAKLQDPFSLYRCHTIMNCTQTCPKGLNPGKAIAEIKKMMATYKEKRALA
# T1 sequence (Q641Z9 1-169): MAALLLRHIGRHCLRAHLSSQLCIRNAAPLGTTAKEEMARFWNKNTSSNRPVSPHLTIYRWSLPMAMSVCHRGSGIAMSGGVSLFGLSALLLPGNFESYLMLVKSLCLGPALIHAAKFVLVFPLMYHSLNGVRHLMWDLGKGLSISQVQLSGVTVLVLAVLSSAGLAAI
# T1 sequence (Q6PCT8 57-159): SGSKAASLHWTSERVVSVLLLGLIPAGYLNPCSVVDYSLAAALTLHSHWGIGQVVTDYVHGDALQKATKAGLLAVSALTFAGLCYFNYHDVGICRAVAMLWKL
# HepG2 cells [15] = experiment: Intracellular ATP content (cell viability) assay; type: cell-based, human; conditions: Homo sapiens
# [16] = test system: isolated rat liver mitochondria; experiment: Oxygen consumption, Clark-type oxygen electrode; type: biochemical
# rat primary hepatocytes [17] = test system: rat primary hepatocytes
# [18] = 1 h, read-out: Rat hepatocytes IC50 (MMP)
# [19] = HepG2, 1 h, read-out: HepG2 IC50 Galactose (MMP)
# [20] = HepG2, 1 h, read-out: HepG2 IC50 Glucose (MMP)
structure (smiles),measurement,setting,value
NNc1nc(-c2ccc([N+](=O)[O-])cc2)cs1 [2-Hydrazino-4-(4-nitrophenyl)thiazole],EXT: mean difference in nematode size relative to plate controls,[1]; 0.5 µM,0.08621
same,EXT: mean difference in nematode size relative to plate controls,[1]; 1 µM,0.08886
same,EXT: mean difference in nematode size relative to plate controls,[1]; 5 µM,0.126
same,EXT: mean difference in nematode size relative to plate controls,[1]; 10 µM,0.2572
same,EXT: mean difference in nematode size relative to plate controls,[1]; 25 µM,0.3181
same,EXT: mean difference in nematode size relative to plate controls,[1]; 50 µM,1.067
same,EXT: mean difference in nematode size relative to plate controls,[1]; 75 µM,1.594
same,EXT: mean difference in nematode size relative to plate controls,[1]; 100 µM,1.403
same,minimal effective concentration,"[1]; Caenorhabditis elegans, read-out: LEC EXT: lowest effect concentration for extinction, a measure of nematode size",25 µM
same,IC50,"hNSC; 1 h treatment, fresh re-sourced stocks, mean±SD of three experiments",4.3 ± 1.42 µM
same,Rat hepatocytes (efficacy) (MMP),"rat primary hepatocytes [2]; % of positive control, mean±SD of three experiments",−73.9±11.0%
same,IC50,rat primary hepatocytes [2]; [18],20.9 ± 11.3 µM
same,IC50,rat primary hepatocytes [2]; read-out: MMP assays IC50 (µM) Rat Hepatocytes,7.9 ± 5.75 µM
same,MMP assays efficacy (%) Rat Hepatocytes,"rat primary hepatocytes [2]; rat hepatocytes, mean ± SD of three experiments",-89±18%
same,LUM: mean difference in luminescence (ATP content) relative to plate controls,[3]; 0.5 µM,-0.01284
same,LUM: mean difference in luminescence (ATP content) relative to plate controls,[3]; 1 µM,-0.00711
same,LUM: mean difference in luminescence (ATP content) relative to plate controls,[3]; 5 µM,0.1253
same,LUM: mean difference in luminescence (ATP content) relative to plate controls,[3]; 10 µM,-0.00409
same,LUM: mean difference in luminescence (ATP content) relative to plate controls,[3]; 25 µM,0.7526
same,LUM: mean difference in luminescence (ATP content) relative to plate controls,[3]; 50 µM,0.8462
same,LUM: mean difference in luminescence (ATP content) relative to plate controls,[3]; 75 µM,1.473
same,LUM: mean difference in luminescence (ATP content) relative to plate controls,[3]; 100 µM,1.784
same,minimal effective concentration,"[3]; Caenorhabditis elegans, read-out: LEC LUM: lowest effect concentration for luminescence, a measure of nematode ATP content",50 µM
same,IC50,HepG2 cells [4]; [19],14.2 ± 2.56 µM
same,IC50,HepG2 cells [4]; [20],12.1 ± 1.39 µM
same,IC50,"HepG2 cells [4]; HepG2, read-out: MMP assays IC50 (µM) HepG2",1.26 µM
same,Emax,"HepG2 cells [4]; HepG2, read-out: MMP assays efficacy (%) HepG2",97%
same,p53 (HCT-116) EC50,[5],Inactive
same,EC50,[6],9.83 ± 3.79 µM
same,MMP assays efficacy (%) qHTS-HepG2,HepG2 cells [7],-106±1%
same,IC50,HepG2 cells [7]; read-out: MMP assays IC50 (µM) qHTS-HepG2,1.6 ± 0.29 µM
same,Complex IV % inhibition (activity call),[8],Inactive
same,EC50,"HepG2 cells [9]; HepG2, 2 h treatment, mean±SD of three experiments",15.4 ± 16.6 µM
same,Parkin recruitment,"[10]; HeLa cells stably expressing YFP-Parkin, treated for 2 h",Active
same,Complex V % inhibition (activity call),[11],Inactive
same,Complex I % inhibition,[12]; at 100μM,21.6±7.1 at 100μM %
same,Complex III % inhibition (activity call),[13],Inactive
same,Complex II % inhibition (activity call),[14],Inactive
same,IC50,"HepG2 cells [15]; HepG2, 5 mM glucose, 40 h treatment, mean±SD of three experiments, read-out: ATP (HepG2, glucose) IC50",48.1 ± 24.3 µM
same,IC50,"HepG2 cells [15]; HepG2, 10 mM galactose, 40 h treatment, mean±SD of three experiments, read-out: ATP (HepG2, galactose) IC50",35.5 ± 4.54 µM
"CCCCCC[C@H]1C(=O)O[C@H](C)[C@H](NC(=O)c2cccc(NC=O)c2O)C(=O)O[C@@H](C)[C@@H]1OC(=O)CC(C)C [Antimycin A, reference compound]",IC50,hNSC; 1 h,2.91 µM
same,IC50,rat primary hepatocytes [2]; [18],2.65 µM
same,IC50,HepG2 cells [4]; [19],0.25 µM
same,IC50,HepG2 cells [4]; [20],2.79 µM
same,EC50,[5]; Homo sapiens,0.31 ± 0.04 µM
same,Potential Mechanism,[16],Inhibitor
same,effect on mitochondrial respiration (in words),[16],significantly inhibited both glutamate/malate-driven respiration and succinate-driven respiration
same,"I-ADP, % of control (O2 consumption rate)",[16]; 0.00128 µM,101 (37.5) % of control
same,"I-sub, % of control (O2 consumption rate)",[16]; 0.00128 µM,104 (11.2) % of control
same,"II-ADP, % of control (O2 consumption rate)",[16]; 0.00128 µM,102 (64.0) % of control
same,"II-sub, % of control (O2 consumption rate)",[16]; 0.00128 µM,105 (19.5) % of control
same,"I-ADP, % of control (O2 consumption rate)",[16]; 0.0064 µM,90 (33.5) % of control
same,"I-sub, % of control (O2 consumption rate)",[16]; 0.0064 µM,93 (10.0) % of control
same,"II-ADP, % of control (O2 consumption rate)",[16]; 0.0064 µM,83 (52.2) % of control
same,"II-sub, % of control (O2 consumption rate)",[16]; 0.0064 µM,92 (17.1) % of control
same,"I-ADP, % of control (O2 consumption rate)",[16]; 0.032 µM,59 (22.1) % of control
same,"I-sub, % of control (O2 consumption rate)",[16]; 0.032 µM,86 (9.3) % of control
same,"II-ADP, % of control (O2 consumption rate)",[16]; 0.032 µM,39 (24.5) % of control
same,"II-sub, % of control (O2 consumption rate)",[16]; 0.032 µM,67 (12.4) % of control
same,"I-ADP, % of control (O2 consumption rate)",[16]; 0.16 µM,17 (6.4) % of control
same,"I-sub, % of control (O2 consumption rate)",[16]; 0.16 µM,53 (5.7) % of control
same,"II-ADP, % of control (O2 consumption rate)",[16]; 0.16 µM,10 (6.4) % of control
same,"II-sub, % of control (O2 consumption rate)",[16]; 0.16 µM,36 (6.7) % of control
same,"I-ADP, % of control (O2 consumption rate)",[16]; 0.8 µM,16 (6.1) % of control
same,"I-sub, % of control (O2 consumption rate)",[16]; 0.8 µM,63 (6.8) % of control
same,"II-ADP, % of control (O2 consumption rate)",[16]; 0.8 µM,10 (6.4) % of control
same,"II-sub, % of control (O2 consumption rate)",[16]; 0.8 µM,30 (5.6) % of control
same,"I-ADP, % of control (O2 consumption rate)",[16]; 4 µM,13 (4.8) % of control
same,"I-sub, % of control (O2 consumption rate)",[16]; 4 µM,51 (5.5) % of control
same,"II-ADP, % of control (O2 consumption rate)",[16]; 4 µM,12 (7.5) % of control
same,"II-sub, % of control (O2 consumption rate)",[16]; 4 µM,31 (5.7) % of control
same,"I-ADP, % of control (O2 consumption rate)",[16]; 20 µM,15 (5.7) % of control
same,"I-sub, % of control (O2 consumption rate)",[16]; 20 µM,54 (5.8) % of control
same,"II-ADP, % of control (O2 consumption rate)",[16]; 20 µM,9 (5.8) % of control
same,"II-sub, % of control (O2 consumption rate)",[16]; 20 µM,32 (6.0) % of control
same,"I-ADP, % of control (O2 consumption rate)",[16]; 100 µM,9 (4.8) % of control
same,"I-sub, % of control (O2 consumption rate)",[16]; 100 µM,26 (5.6) % of control
same,"II-ADP, % of control (O2 consumption rate)",[16]; 100 µM,7 (4.0) % of control
same,"II-sub, % of control (O2 consumption rate)",[16]; 100 µM,13 (4.6) % of control
same,EC50,[6],0.47 ± 0.42 µM
same,Complex IV % inhibition (activity call),[8],Inactive
same,EC50,"HepG2 cells [9]; HepG2, 2 h",6.83 µM
same,Parkin recruitment,[10],Active
same,Parkin translocation into mitochondria (in words),[10]; 3 h,significantly increased Parkin translocation into mitochondria
same,Rat hepatocytes (efficacy) (MMP),rat primary hepatocytes [17],2.65±1.08 ( −94.9±3.37 ) %
same,Complex V % inhibition (activity call),[11],Inactive
same,Complex I % inhibition (activity call),[12],Inactive
same,inhibitory effect on Complex III at (concentration),[13],0.032 µM
same,Complex III % inhibition,[13]; at 0.032μM,71.1±2.91 at 0.032μM %
same,Complex II % inhibition (activity call),[14],Inactive
same,IC50,"HepG2 cells [15]; HepG2, 40 h, read-out: ATP (HepG2, galactose) IC50",0.05 µM
same,IC50,"HepG2 cells [15]; HepG2, 40 h, read-out: ATP (HepG2, glucose) IC50",0.02 µM
